SMILES strings stand for the structures.

The test deals with GLP1R (Homo sapiens, UniProt P43220). Briefly: GLP1R cAMP assay (HTRF), HEK293/GLP-1R/CRE/Luc, Clone 4.
Chain of GLP1R (P43220 24-463): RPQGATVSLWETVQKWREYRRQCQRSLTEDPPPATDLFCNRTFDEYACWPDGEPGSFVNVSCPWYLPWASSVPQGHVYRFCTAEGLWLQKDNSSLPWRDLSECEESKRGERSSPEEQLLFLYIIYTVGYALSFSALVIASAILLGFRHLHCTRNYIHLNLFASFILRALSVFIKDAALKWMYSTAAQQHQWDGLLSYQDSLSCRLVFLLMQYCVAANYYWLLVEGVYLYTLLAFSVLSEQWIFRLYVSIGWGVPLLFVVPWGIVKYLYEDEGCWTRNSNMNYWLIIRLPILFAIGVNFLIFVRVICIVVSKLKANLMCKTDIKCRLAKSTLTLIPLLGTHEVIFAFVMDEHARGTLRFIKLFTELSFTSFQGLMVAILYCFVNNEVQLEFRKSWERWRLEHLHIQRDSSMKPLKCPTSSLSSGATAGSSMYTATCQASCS

Protocol: GLP-1R-mediated agonist activity was determined with a cell-based functional assay utilizing an HTRF (Homogeneous Time-Resolved Fluorescence) cAMP detection kit (cAMP Dynamic 2 Assay Kit; CisBio cat #62AM4PEC) that measures cAMP levels in the cell. The method is a competitive immunoassay between native cAMP produced by the cells and exogenous cAMP labeled with the dye d2. The tracer binding is visualized by a mAb anti-cAMP labeled with Cryptate. The specific signal (i.e., energy transfer) is inversely proportional to the concentration of cAMP in either standard or experimental sample.
The human GLP-1R coding sequence (NCBI Reference Sequence NM_002062) was subcloned into pcDNA3.1+/Hygro vector (Invitrogen) and transfected into HEK293/CRE/Luc parental cell line. A cell line stably expressing the receptor was isolated.
Varying concentrations of each compound to be tested (in DMSO) were diluted in DMSO to obtain 200× compound working solution first and then 50 nl compounds were added to a white 384-well assay plate (Greiner 784075) with ECHO. The final DMSO concentration was 0.5%.
Cells were removed from cryopreservation, re-suspended in 5 mL of Dulbecco's Phosphate Buffered Saline (DPBS-Sigma Cat #D8537) and centrifuged at 900×g for 5 min at 22° C. The cell pellet was then re-suspended in 1 mL of assay buffer [DPBS with 500 μM IBMX (Sigma #15879) and 0.1% BSA (Sigma #A1933). IBMX and BSA were freshly added on the day of assay]. A 10 μL sample of the cell suspension was counted on an Invitrogen Countess II to determine cell viability and cell count per mL. The remaining cell suspension was then adjusted with assay buffer to deliver 1000 viable cells per well using a Matrix Combi Multidrop reagent dispenser. 10 μL cell suspensions were added to each well
of the assay plate which already contains compound. The plate was sealed and incubated at 37° C. with 5% CO2 for 30 minutes.
Following the 30 minute incubation, 5 μL of labeled d2 cAMP and 5 μL of anti-cAMP antibody (both diluted 1:20 in cell lysis buffer; as described in the manufacturer's assay protocol) were added to each well of the assay plate. The plates were then incubated at room temperature and after 60 minutes, changes in the HTRF signal were read with an Envision multi-label plate reader using excitation of 330 nm and emissions of 615 and 665 nm. Raw data were converted to nM cAMP by interpolation from a cAMP standard curve (as described in the manufacturer's assay protocol) and the percent effect was determined relative to a saturating concentration of the full agonist GLP-17-37 (10 nM) included on each plate. EC50 determinations were made from agonist dose-response curves analyzed with a curve fitting program using a 4-parameter logistic dose response equation.

`O=C(O)c1ccc2nc(Cc3ccc(-c4cccc(OCc5ccc(Cl)cc5F)n4)cc3Cl)n(C[C@@H]3CCO3)c2c1` [Compound 258, (S)-2-(2-chloro-4-(6-((4-chloro-2-fluorobenzyl)oxy)pyridin-2-yl)benzyl)-1-(oxetan-2-ylmethyl)-1H-benzo[d]imidazole-6-carboxylic acid] yielded a 50% effective concentration (EC50) of less than 0.015 µM. `Cc1cc(-c2cccc(OCc3ccc(Cl)cc3F)n2)ccc1Cc1nc2ccc(C(=O)O)cc2n1C[C@@H]1CCO1` [Compound 295, (S)-2-(4-(6-((4-chloro-2-fluorobenzyl)oxy)pyridin-2-yl)-2-methylbenzyl)-1-(oxetan-2-ylmethyl)-1H-benzo[d]imidazole-6-carboxylic acid] had an EC50 of less than 0.015 µM. With `O=C(O)c1ccc2nc(Cc3ccc(-c4nc(OCc5ccc(Cl)cc5F)ccc4F)c(F)c3)n(C[C@@H]3CCO3)c2c1` [Compound 261, (S)-2-(4-(6-(4-chloro-2-fluorobenzyloxy)-3-fluoropyridin-2-yl)-3-fluorobenzyl)-1-(oxetan-2-ylmethyl)-1H-benzo[d]imidazole-6-carboxylic acid], the EC50 was less than 0.015 µM. Then `O=C(O)c1ccc2nc(CN3CC=C(c4csc(OCc5ccc(F)cc5Cl)n4)CC3)n(C[C@@H]3CCO3)c2c1` [Compound 254, (S)-2-((4-(2-((2-chloro-4-fluorobenzyl)oxy)thiazol-4-yl)-3,6-dihydropyridin-1(2H)-yl)methyl)-1-(oxetan-2-ylmethyl)-1H-benzo[d]imidazole-6-carboxylic acid], with 0.015 to 0.15 µM; and `O=C(O)c1ccc2nc(CN3CC=C(c4csc(OCc5ccc(Br)cn5)n4)CC3)n(C[C@@H]3CCO3)c2c1` [Compound 253, (S)-2-((4-(2-((5-bromopyridin-2-yl)methoxy)thiazol-4-yl)-3,6-dihydropyridin-1(2H)-yl)methyl)-1-(oxetan-2-ylmethyl)-1H-benzo[d]imidazole-6-carboxylic acid], with 0.015 to 0.15 µM.

As for `O=C(O)c1ccc2nc(Cc3ccc(-c4cccc(OCc5ccc(F)cc5F)n4)cc3F)n(C[C@@H]3CCO3)c2c1` [Compound 274, (S)-2-(4-(6-((2,4-difluorobenzyl)oxy)pyridin-2-yl)-2-fluorobenzyl)-1-(oxetan-2-ylmethyl)-1H-benzo[d]imidazole-6-carboxylic acid], the EC50 was less than 0.015 µM. In turn, `N#Cc1ccc(COc2cccc(C3=CCN(Cc4nc5ccc(B(O)O)cc5n4C[C@@H]4CCO4)CC3)n2)c(F)c1` [Compound 328, (S)-(2-((6-((4-cyano-2-fluorobenzyl)oxy)-3′,6′-dihydro-[2,4′-bipyridin]-1′(2′H)-yl)methyl)-1-(oxetan-2-ylmethyl)-1H-benzo[d]imidazol-6-yl)boronic acid] returned an EC50 of 0.015 to 0.15 µM. Then `N#Cc1ccc(COc2cccc(N3CCC(=Cc4nc5ccc(C(=O)O)cc5n4C[C@@H]4CCO4)CC3)n2)c(F)c1` [Compound 317, (S)-2-((1-(6-((4-cyano-2-fluorobenzyl)oxy)pyridin-2-yl)piperidin-4-ylidene)methyl)-1-(oxetan-2-ylmethyl)-1H-benzo[d]imidazole-6-carboxylic acid], with less than 0.015 µM; and `O=C(O)c1ccc2nc(Cc3ccc(-c4cccc(OCc5ccc(Cl)cc5F)n4)cc3F)n(C[C@@H]3CCO3)c2c1F` [Compound 309, (S)-2-(4-(6-((4-chloro-2-fluorobenzyl)oxy)pyridin-2-yl)-2-fluorobenzyl)-7-fluoro-1-(oxetan-2-ylmethyl)-1H-benzo[d]imidazole-6-carboxylic acid], with less than 0.015 µM; and `O=C(O)c1ccc2nc(CN3CC=C(c4csc(OCc5ccc(C#CC6CC6)cc5F)n4)CC3)n(C[C@@H]3CCO3)c2c1` [Compound 249, (S)-2-((4-(2-((4-(cyclopropylethynyl)-2-fluorobenzyl)oxy)thiazol-4-yl)-3,6-dihydropyridin-1(2H)-yl)methyl)-1-(oxetan-2-ylmethyl)-1H-benzo[d]imidazole-6-carboxylic acid], with 0.015 to 0.15 µM.

For the compound `O=C(O)c1ccc2nc(CN3CC=C(c4csc(OCc5ccc(F)cc5F)n4)CC3)n(C[C@@H]3CCO3)c2c1` [Compound 252, (S)-2-((4-(2-((2,4-difluorobenzyl)oxy)thiazol-4-yl)-3,6-dihydropyridin-1(2H)-yl)methyl)-1-(oxetan-2-ylmethyl)-1H-benzo[d]imidazole-6-carboxylic acid], the concentration for a half-maximal effect (EC50) was 0.015 to 0.15 µM.

In turn, `O=C(O)c1ccc2nc(CN3CC=C(c4csc(OCc5ccc(OC(F)(F)F)cc5)n4)CC3)n(C[C@@H]3CCO3)c2c1` [Compound 251, (S)-1-(oxetan-2-ylmethyl)-2-((4-(2-((4-(trifluoromethoxy)benzyl)oxy)thiazol-4-yl)-3,6-dihydropyridin-1(2H)-yl)methyl)-1H-benzo[d]imidazole-6-carboxylic acid] came in with an EC50 of 0.015 to 0.15 µM. Then `O=C(O)c1ccc2nc(Cc3ccc(-c4nc(OCc5ccc(Cl)cc5F)c(F)cc4F)cc3F)n(C[C@@H]3CCO3)c2n1` [Compound 299, (S)-2-(4-(6-(4-chloro-2-fluorobenzyloxy)-3,5-difluoropyridin-2-yl)-2-fluorobenzyl)-3-(oxetan-2-ylmethyl)-3H-imidazo [4,5-b]pyridine-S-carboxylic acid], with less than 0.015 µM; and `Cc1cc(Cc2nc3ccc(C(=O)O)cc3n2C[C@@H]2CCO2)ccc1-c1cccc(OCc2ccc(Cl)cc2F)n1` [Compound 270, (S)-2-(4-(6-((4-chloro-2-fluorobenzyl)oxy)pyridin-2-yl)-3-methylbenzyl)-1-(oxetan-2-ylmethyl)-1H-benzo[d]imidazole-6-carboxylic acid], with less than 0.015 µM. Under `N#Cc1cnc(COc2nc(-c3ccc(Cc4nc5ccc(C(=O)O)nc5n4C[C@@H]4CCO4)cc3F)ncc2F)c(F)c1` [Compound 302, (S)-2-(4-(4-((5-cyano-3-fluoropyridin-2-yl)methoxy)-5-fluoropyrimidin-2-yl)-3-fluorobenzyl)-3-(oxetan-2-ylmethyl)-3H-imidazo[4,5-b]pyridine-5-carboxylic acid] stands 0.015 to 0.15 µM; under `O=C(O)c1ccc2nc(CN3CC=C(c4cccnc4OCc4ccc(Cl)cc4F)CC3)n(C[C@@H]3CCO3)c2c1` [Compound 329, (S)-2-((2-((4-chloro-2-fluorobenzyl)oxy)-3′,6′-dihydro-[3,4′-bipyridin]-1′(2′H)-yl)methyl)-1-(oxetan-2-ylmethyl)-1H-benzo[d]imidazole-6-carboxylic acid], 0.015 to 0.15 µM. Then `N#Cc1ccc(COc2nc(-c3cc(F)c(Cc4nc5ccc(C(=O)O)cc5n4C[C@@H]4CCO4)cc3F)ncc2F)nc1` [Compound 275, (S)-2-(4-(4-((5-cyanopyridin-2-yl)methoxy)-5-fluoropyrimidin-2-yl)-2,5-difluorobenzyl)-1-(oxetan-2-ylmethyl)-1H-benzo[d]imidazole-6-carboxylic acid], with less than 0.015 µM; and `O=C(O)c1ccc2nc(Cc3ccc(-c4nc(OCc5ccc(Cl)cc5F)c(F)cc4F)c(F)c3)n(C[C@@H]3CCO3)c2n1` [Compound 306, (S)-2-(4-(6-((4-chloro-2-fluorobenzyl)oxy)-3,5-difluoropyridin-2-yl)-3-fluorobenzyl)-3-(oxetan-2-ylmethyl)-3H-imidazo[4,5-b]pyridine-5-carboxylic acid], with less than 0.015 µM. Regarding `O=C(O)c1ccc2nc(Cc3ccc(-c4cccc(OCc5ccc(F)cc5F)n4)cc3F)n(C[C@@H]3CCO3)c2n1` [Compound 286, (S)-2-(4-(6-((2,4-difluorobenzyl)oxy)pyridin-2-yl)-2-fluorobenzyl)-3-(oxetan-2-ylmethyl)-3H-imidazo[4,5-b]pyridine-5-carboxylic acid], the concentration for a half-maximal effect (EC50) is less than 0.015 µM. Under `O=C(O)c1ccc2nc(Cc3ccc(-c4nccc(OCc5ccc(Cl)cc5F)n4)c(F)c3)n(C[C@@H]3CCO3)c2c1` [Compound 259, (S)-2-(4-(4-((4-chloro-2-fluorobenzyl)oxy)pyrimidin-2-yl)-3-fluorobenzyl)-1-(oxetan-2-ylmethyl)-1H-benzo[d]imidazole-6-carboxylic acid] stands less than 0.015 µM. Under `O=C(O)c1ccc2nc(Cc3cc(F)c(-c4cccc(OCc5ccc(Cl)cn5)n4)cc3F)n(C[C@@H]3CCO3)c2c1` [Compound 269, (S)-2-(4-(6-((5-chloropyridin-2-yl)methoxy)pyridin-2-yl)-2,5-difluorobenzyl)-1-(oxetan-2-ylmethyl)-1H-benzo[d]imidazole-6-carboxylic acid] stands less than 0.015 µM; under `N#Cc1ccc(COc2cccc(N3CCC(=Cc4nc5ccc(C(=O)O)c(F)c5n4C[C@@H]4CCO4)CC3)n2)nc1` [Compound 318, (S)-2-((1-(6-((5-cyanopyridin-2-yl)methoxy)pyridin-2-yl)piperidin-4-ylidene)methyl)-7-fluoro-1-(oxetan-2-ylmethyl)-1H-benzo[d]imidazole-6-carboxylic acid], 0.015 to 0.15 µM; under `O=C(O)c1ccc2nc(Cc3ccc(-c4cncc(OCc5ccc(Cl)cc5F)n4)cc3F)n(C[C@@H]3CCO3)c2c1` [Compound 265, (S)-2-(4-(6-((4-chloro-2-fluorobenzyl)oxy)pyrazin-2-yl)-2-fluorobenzyl)-1-(oxetan-2-ylmethyl)-1H-benzo[d]imidazole-6-carboxylic acid], less than 0.015 µM. Under `N#Cc1ccc(COc2cccc(-c3ccn(Cc4nc5ccc(C(=O)O)nc5n4C[C@@H]4CCO4)c(=O)c3)n2)c(F)c1` [Compound 324, (S)-2-((6-((4-cyano-2-fluorobenzyl)oxy)-2′-oxo-[2,4′-bipyridin]-1′(2′H)-yl)methyl)-3-(oxetan-2-ylmethyl)-3H-imidazo[4,5-b]pyridine-5-carboxylic acid] stands 0.015 to 0.15 µM; under `O=C(O)c1ccc2nc(CN3CC=C(c4cccc(OCc5ccc(Cl)cc5F)n4)CC3)c(Cc3cocn3)n2c1` [Compound 327, 2-((6-((4-chloro-2-fluorobenzyl)oxy)-3′,6′-dihydro-[2,4′-bipyridin]-1′(2′H)-yl)methyl)-3-(oxazol-4-ylmethyl)imidazo[1,2-a]pyridine-6-carboxylic acid], 0.015 to 0.15 µM. For the compound `N#Cc1ccc(COc2cccc(-c3ccc(Cc4nc5ccc(C(=O)O)nc5n4C[C@@H]4CCO4)c(F)c3)n2)c(F)c1` [Compound 282, (S)-2-(4-(6-((4-cyano-2-fluorobenzyl)oxy)pyridin-2-yl)-2-fluorobenzyl)-3-(oxetan-2-ylmethyl)-3H-imidazo[4,5-b]pyridine-5-carboxylic acid], the EC50 is less than 0.015 µM.

Values taken from patent publication US10954221B2, “GLP-1R agonists and uses thereof” (QILU REGOR THERAPEUTICS INC., priority 2019, dated 2021).
